Data as given in ChEMBL document CHEMBL3232786, “Therapeutic utility of cannabinoid receptor type 2 (CB(2)) selective agonists” (J Med Chem, 2013).

Key:
Cannabinoid receptor 2 [1] = biological target: T1, Cannabinoid receptor 2 (Homo sapiens, UniProt P34972); assay: Agonist activity at human CB2 receptor expressed in CHO-K1 cells assessed as inhibition of forskolin-induced cAMP accumulation by TR-FRET assay; assay type: functional, cell-based
Cannabinoid receptor 1 [2] = biological target: T2, Cannabinoid receptor 1 (Homo sapiens, UniProt P21554); assay: Agonist activity at human CB1 receptor expressed in CHO-K1 cells assessed as inhibition of forskolin-induced cAMP accumulation by TR-FRET assay; assay type: functional, cell-based
Cannabinoid receptor 2 [3] = biological target: T1, Cannabinoid receptor 2; assay: Binding affinity to human CB2 receptor
Cannabinoid receptor 1 [4] = biological target: T3, Cannabinoid receptor 1 (Rattus norvegicus, UniProt P20272); assay: Binding affinity to rat CB1 receptor
[5] = Selectivity ratio of Ki for rat CB1 receptor to Ki for human CB2 receptor
Cannabinoid receptor 2 [6] = biological target: T4, Cannabinoid receptor 2 (Rattus norvegicus, UniProt Q9QZN9); assay: Inverse agonist activity at rat CB2 receptor expressed in CHO-K1 cells assessed as inhibition of forskolin-induced cAMP accumulation; assay type: functional, cell-based
T4 sequence (Q9QZN9 whole entry): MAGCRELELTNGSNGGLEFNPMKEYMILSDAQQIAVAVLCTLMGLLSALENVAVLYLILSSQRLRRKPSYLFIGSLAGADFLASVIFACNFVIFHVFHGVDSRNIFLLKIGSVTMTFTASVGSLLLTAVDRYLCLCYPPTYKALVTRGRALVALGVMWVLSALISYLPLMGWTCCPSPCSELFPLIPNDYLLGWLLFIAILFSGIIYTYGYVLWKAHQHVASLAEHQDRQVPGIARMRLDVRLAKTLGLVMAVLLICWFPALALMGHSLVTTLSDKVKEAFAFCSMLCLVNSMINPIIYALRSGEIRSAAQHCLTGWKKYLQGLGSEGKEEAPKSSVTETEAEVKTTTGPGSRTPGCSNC

Cannabinoid receptor 2 [7] = biological target: T1, Cannabinoid receptor 2; assay: Agonist activity at human CB2 receptor assessed as inhibition of forskolin-induced cAMP production preincubated for 15 mins followed by forskolin challenge measured after 30 mins by HTRF assay; assay type: functional
Cannabinoid receptor 1 [8] = biological target: T2, Cannabinoid receptor 1; assay: Agonist activity at human CB1 receptor assessed as inhibition of forskolin-induced cAMP production preincubated for 15 mins followed by forskolin challenge measured after 30 mins by HTRF assay; assay type: functional
Cannabinoid receptor 2 [9] = biological target: T1, Cannabinoid receptor 2; assay: Agonist activity at human CB2 receptor transfected in CHO-K1 cells assessed as cAMP change; assay type: functional, cell-based
Cannabinoid receptor 1 [10] = biological target: T3, Cannabinoid receptor 1; assay: Displacement of [3H]SR141716A from rat brain CB1 receptor by liquid scintillation spectrophotometry
Homo sapiens = organism: Homo sapiens; assay: Selectivity ratio of Ki for human CB1 receptor to Ki for human CB2 receptor
Cannabinoid receptor 2 [11] = biological target: T1, Cannabinoid receptor 2; assay: Displacement of [3H]-CP55940 from human CB2 receptor expressed in HEK293 cells after 90 mins by liquid scintillation counting; assay type: cell-based
Cannabinoid receptor 1 [12] = biological target: T2, Cannabinoid receptor 1; assay: Displacement of [3H]-CP55940 from human CB1 receptor expressed in HEK293 cells after 90 mins by liquid scintillation counting; assay type: cell-based
Cannabinoid receptor 2 [13] = biological target: T1, Cannabinoid receptor 2; assay: Binding affinity to CB2 receptor (unknown origin)
Cannabinoid receptor 1 [14] = biological target: T2, Cannabinoid receptor 1; assay: Binding affinity to CB1 receptor (unknown origin)
Cannabinoid receptor 2 [15] = biological target: T1, Cannabinoid receptor 2; assay: Agonist activity at human CB2 receptor expressed in Sf9 membranes assessed as effect on [35S]-GTPgammaS binding after 30 mins by scintillation counting; assay type: functional, cell membranes
Cannabinoid receptor 1 [16] = biological target: T2, Cannabinoid receptor 1; assay: Displacement of [3H]-CP55940 from human CB1 receptor by liquid scintillation counting
Cannabinoid receptor 1 [17] = biological target: T3, Cannabinoid receptor 1; assay: Displacement of [3H]-CP55940 from CB1 receptor of rat brain
Cannabinoid receptor 2 [18] = biological target: T1, Cannabinoid receptor 2; assay: Displacement of [3H]-CP55940 from human CB2 receptor expressed in HEK cells by liquid scintillation counting; assay type: cell-based, HEK293
Cannabinoid receptor 1 [19] = biological target: T2, Cannabinoid receptor 1; assay: Agonist activity at human CB1 receptor expressed in human SK-N-MC cells at 1 uM by CRE-beta galactosidase reporter gene assay; assay type: functional, cell-based
Cannabinoid receptor 1 [20] = biological target: T2, Cannabinoid receptor 1; assay: Agonist activity at CB1 receptor (unknown origin)
Mus musculus = assay: Antinociceptive activity against iv dosed ICR mouse measured at 20 mins by tail flick test; assay type: functional
Cannabinoid receptor 2 [21] = biological target: T1, Cannabinoid receptor 2; assay: Agonist activity at human CB2 receptor assessed as inhibition of forskolin-induced cAMP production preincubated for 15 mins followed by forskolin challenge measured after 30 mins by HTRF assay relative to control; assay type: functional
Cannabinoid receptor 1 [22] = biological target: T3, Cannabinoid receptor 1; assay: Displacement of [3H]-CP55940 from CB1 receptor of rat cerebellar membranes by liquid scintillation counting in presence of serine protease inhibitor PMSF; set-up: species or system Cerebellum, Membrane
Cannabinoid receptor 2 [23] = biological target: T4, Cannabinoid receptor 2; assay: Displacement of [3H]-CP55940 from CB2 receptor of rat spleen membranes by liquid scintillation counting in presence of serine protease inhibitor PMSF; assay type: tissue-based, Membrane
Rattus norvegicus = organism: Rattus norvegicus; assay: Selectivity ratio of Ki for CB2 receptor of rat spleen membranes to Ki for CB1 receptor of rat cerebellar membranes; assay type: tissue-based

T3 sequence (P20272 whole entry): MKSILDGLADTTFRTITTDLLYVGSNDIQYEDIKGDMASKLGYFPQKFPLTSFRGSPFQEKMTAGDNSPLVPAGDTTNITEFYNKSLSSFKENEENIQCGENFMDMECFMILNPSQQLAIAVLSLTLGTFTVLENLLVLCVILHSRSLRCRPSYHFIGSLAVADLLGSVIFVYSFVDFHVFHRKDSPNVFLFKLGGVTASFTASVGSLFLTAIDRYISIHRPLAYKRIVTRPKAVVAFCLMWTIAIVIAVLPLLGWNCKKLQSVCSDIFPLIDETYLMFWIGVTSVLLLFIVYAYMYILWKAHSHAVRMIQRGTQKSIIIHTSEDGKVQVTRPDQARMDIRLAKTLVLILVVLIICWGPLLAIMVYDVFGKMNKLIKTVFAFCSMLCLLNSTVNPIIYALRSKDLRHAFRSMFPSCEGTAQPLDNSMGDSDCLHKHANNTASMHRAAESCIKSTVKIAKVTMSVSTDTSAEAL
T1 sequence (P34972 whole entry): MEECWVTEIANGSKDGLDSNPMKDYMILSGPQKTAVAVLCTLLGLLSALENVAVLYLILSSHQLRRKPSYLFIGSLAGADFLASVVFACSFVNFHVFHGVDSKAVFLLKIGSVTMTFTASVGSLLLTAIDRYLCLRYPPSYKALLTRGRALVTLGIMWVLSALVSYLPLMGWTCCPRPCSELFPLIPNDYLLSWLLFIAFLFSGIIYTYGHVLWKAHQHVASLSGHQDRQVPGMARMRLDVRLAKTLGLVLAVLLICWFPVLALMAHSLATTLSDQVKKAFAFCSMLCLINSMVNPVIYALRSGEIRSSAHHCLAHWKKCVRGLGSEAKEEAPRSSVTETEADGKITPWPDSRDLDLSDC
T2 sequence (P21554 whole entry): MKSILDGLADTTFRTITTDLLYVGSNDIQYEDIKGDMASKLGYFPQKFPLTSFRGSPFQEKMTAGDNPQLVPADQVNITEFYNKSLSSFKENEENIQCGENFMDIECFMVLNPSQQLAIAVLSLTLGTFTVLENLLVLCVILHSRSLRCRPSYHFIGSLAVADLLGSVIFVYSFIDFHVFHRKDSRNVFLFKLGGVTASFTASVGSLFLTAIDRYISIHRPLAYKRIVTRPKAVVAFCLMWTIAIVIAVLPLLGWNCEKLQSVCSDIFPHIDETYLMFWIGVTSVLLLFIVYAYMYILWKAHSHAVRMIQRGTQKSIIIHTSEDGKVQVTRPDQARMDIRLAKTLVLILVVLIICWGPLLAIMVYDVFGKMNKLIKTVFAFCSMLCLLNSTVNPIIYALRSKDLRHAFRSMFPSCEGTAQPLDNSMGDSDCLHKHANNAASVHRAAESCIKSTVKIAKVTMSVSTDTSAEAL

`CS(=O)(=O)N1CCc2c(cc(-c3cccc(Cl)c3)c(=O)n2CC2CCC2)C1` showed an EC50 (Cannabinoid receptor 2 [1]) of under 100 nM and an EC50 (Cannabinoid receptor 1 [2]) of over 10000 nM.
`CCCCCc1ccc2c(c1)OC(C)(C)[C@@H]1CC=C(C)C[C@@H]21` showed a Ki (Cannabinoid receptor 2 [3]) of 32 nM, a Ki (Cannabinoid receptor 1 [4]) of over 10000 nM and a Ratio Ki [5] of over 312.
`CN1CCCC[C@@H]1Cn1cc(C(=O)c2cc([N+](=O)[O-])ccc2I)c2ccccc21` gave an EC50 (Cannabinoid receptor 2 [6]) of 315 nM.
In the case of `CNC(=O)[C@@H](NC(=O)c1nc(-c2ccccc2)n2c1CN(C)CCC2)C(C)(C)C`, the EC50 (Cannabinoid receptor 2 [7]) is reported as 10 nM and the EC50 (Cannabinoid receptor 1 [8]) is reported as over 10000 nM.
Work on `FC1(F)CCN(Cc2nc(-c3cccc(C(F)(F)F)c3)n3ccccc23)CC1` yielded an EC50 (Cannabinoid receptor 2 [7]) of 17 nM.
Molecule `O=S(=O)(c1ccc2c(c1)C1C3CCC(C3)C1C(c1ccccc1)N2)N1CCOCC1` (stereo not drawn) has an EC50 (Cannabinoid receptor 1 [2]) of over 10000 nM.
`CC1CN1S(=O)(=O)c1ccc2c(c1)C1(OCCCO1)C(=O)N2CC1CC1` (stereo not drawn) gave an EC50 (Cannabinoid receptor 2 [9]) of 2 nM.
`CC(=O)Oc1cc(O[C@H](C)CCCc2ccccc2)cc2c1[C@@H]1C[C@H](O)CC[C@H]1[C@H](C)N2` [LEVONANTRADOL] showed a Ki (Cannabinoid receptor 1 [10]) of 2.9 nM.
With `COCCN1CC(C)(C)S/C1=N\C(=O)c1cc(Cl)ccc1OC` the Ratio Ki (Homo sapiens) was 10.
In the case of `CCNC(=O)c1c(NC(=O)C23CC4CC(CC(C4)C2)C3)sc2c1CCOC2`, the EC50 (Cannabinoid receptor 2 [11]) is reported as 21 nM and the EC50 (Cannabinoid receptor 1 [12]) is reported as over 1.5 nM.
In the case of `C=C1CC[C@@H]2[C@@H](C1)c1c(OC)cc(C(C)(C)CCCCCC)cc1OC2(C)C`, the Ratio Ki (Homo sapiens) is reported as over 1000.
Molecule `CCCCCCC(C)(C)c1cc(O)c2c(c1)OC(C)(C)[C@@H]1CC=C(C)C[C@@H]21` has a Ratio Ki (Homo sapiens) of 1.7.
Work on `COc1cccc2c(C(=O)N[C@@H]3C(C)(C)[C@@H]4CC[C@@]3(C)C4)nn(CCN3CCOCC3)c12` yielded a Ki (Cannabinoid receptor 2 [13]) of 2 nM and a Ki (Cannabinoid receptor 1 [14]) of 24 nM.
For `O=C(Nc1sc2c(c1C(=O)N1CCC1)CC1CCC2O1)c1c(F)cccc1C(F)(F)F` (stereo not drawn), the Ratio Ki (Homo sapiens) was 10.
`Cc1c(C(=O)c2cccc(Cl)c2Cl)c2ccsc2n1CCN1CCOCC1` showed an EC50 (Cannabinoid receptor 2 [15]) of under 100 nM.
`CC1OCc2sc(NC(=O)C3C(C)(C)C3(C)C)c(C(=O)N3CC(F)(F)C3)c21` (stereo not drawn) showed a Ratio Ki (Homo sapiens) of 10.
For `CN1CCCCC1Cn1cc(C(=O)c2cc([N+](=O)[O-])ccc2I)c2ccccc21` (racemic), the Ki (Cannabinoid receptor 1 [16]) was 580 nM, the Ki (Cannabinoid receptor 1 [17]) was 280 nM and the Ki (Cannabinoid receptor 2 [18]) was 7.1 nM. For the same molecule, the EC50 (Cannabinoid receptor 2 [6]) was 216 nM.
`O=C(NCC12CC3CC(CC(C3)C1)C2)c1nn(C2CCCCC2)c2c1CCCCCC2` gave an Activity (Cannabinoid receptor 1 [19]) of 71%.
With `Clc1ccc(-c2nc(N3CCCCC3)c3ccccc3n2)c(Cl)c1` the Ki (Cannabinoid receptor 2 [7]) was under 1000 nM.
Molecule `CCc1c(C)cc(C(=O)NC2(C(=O)O)CCCCC2)c(=O)n1Cc1ccc(F)cc1` [S-777469] has a Ki (Cannabinoid receptor 1 [20]) of 4600 nM.
With `CCCCCc1cc(O)c2c(c1)OC(C)(C)[C@@H]1CCC(C)=C[C@@H]21` [DRONABINOL] the ED50 (Mus musculus) was 0.02 mg/kg.
Molecule `CC(NC(=O)c1nc(N2CCOCC2)n2ccccc12)C(C)(C)C` (stereo not drawn) has an EC50 (Cannabinoid receptor 2 [7]) of 5.4 nM, an Emax (Cannabinoid receptor 2 [21]) of 99.5% and an EC50 (Cannabinoid receptor 1 [8]) of over 17000 nM. The Ratio Ki (Homo sapiens) was over 3100.
In the case of `CCCCC/C=C\C/C=C\C/C=C\C/C=C\CCCC(=O)NC1CC1`, the Ki (Cannabinoid receptor 1 [22]) is reported as 2.2 nM, the Ki (Cannabinoid receptor 2 [23]) is reported as 715 nM and the Ratio Ki (Rattus norvegicus) is reported as 325.
Molecule `CC(=O)N1CCC(Cn2c(C(C)(C)C)nc3cc(S(=O)(=O)C4CCCC4)ccc32)CC1` has an EC50 (Cannabinoid receptor 2 [7]) of 3 nM.
With `CCCC(C)(C)c1ccc2c(c1)OC(C)(C)[C@@H]1CC=C(C)C[C@@H]21` the Ratio Ki [5] was 200.
`CCCCC/C=C\C/C=C\C/C=C\C/C=C\CCCC(=O)NCCCl` gave a Ki (Cannabinoid receptor 1 [22]) of 1.4 nM, a Ki (Cannabinoid receptor 2 [23]) of over 2000 nM and a Ratio Ki (Rattus norvegicus) of over 1430.
`Cc1ccc2c(c1)Cc1c(C(=O)NN3CCCCC3)nn(-c3ccc(Cl)cc3Cl)c1-2` showed a Ki (Cannabinoid receptor 2 [13]) of 0.037 nM.
